Test results taken from ChEMBL document CHEMBL1201862, “PubChem BioAssay data set” (2004).
Active and inactive are the calls of the source.

Assays:
[1] = molecular target: Luciferin 4-monooxygenase (Photinus pyralis, UniProt P08659); assay: inhibition of purified Photinus pyralis luciferase – biochemical, luminescence, dose response (AID 1891)
[2] = Luminescence Cell-Based Dose Confirmation HTS to Identify Inhibitors of Platelet Dense Granule Release. [Related pubchem assays: 1663 (Primary HTS), 1678 (Summary of Project)]; format: functional
Cytochrome P450 1A2 = molecular target: T1, Cytochrome P450 1A2 (Homo sapiens, UniProt P05177);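 also: PubChem cytochrome P450 panel assay, CYP1A2 panel member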
T1 sequence (P05177 whole entry): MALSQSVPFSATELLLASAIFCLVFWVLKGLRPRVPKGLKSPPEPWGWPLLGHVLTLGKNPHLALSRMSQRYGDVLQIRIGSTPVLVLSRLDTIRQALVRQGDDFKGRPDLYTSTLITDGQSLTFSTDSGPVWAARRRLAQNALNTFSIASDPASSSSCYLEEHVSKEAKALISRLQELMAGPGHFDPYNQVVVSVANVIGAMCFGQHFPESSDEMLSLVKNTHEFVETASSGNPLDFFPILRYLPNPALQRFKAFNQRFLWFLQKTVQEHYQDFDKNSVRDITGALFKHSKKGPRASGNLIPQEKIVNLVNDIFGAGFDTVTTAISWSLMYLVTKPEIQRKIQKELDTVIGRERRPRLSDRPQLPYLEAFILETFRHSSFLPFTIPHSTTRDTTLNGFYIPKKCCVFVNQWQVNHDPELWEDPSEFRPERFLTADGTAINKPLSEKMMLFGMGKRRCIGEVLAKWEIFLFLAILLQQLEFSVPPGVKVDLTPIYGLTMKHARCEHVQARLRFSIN

[3] = microbe, parasite or virus in culture; format: functional; conditions: Mycobacterium tuberculosis
Cytochrome P450 3A4 = Cytochrome P450 3A4 (Homo sapiens, UniProt P08684);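 also: CYP3A4 tested as one member of a cytochrome P450 panel screen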
Cytochrome P450 3A4, sequence (P08684 whole entry): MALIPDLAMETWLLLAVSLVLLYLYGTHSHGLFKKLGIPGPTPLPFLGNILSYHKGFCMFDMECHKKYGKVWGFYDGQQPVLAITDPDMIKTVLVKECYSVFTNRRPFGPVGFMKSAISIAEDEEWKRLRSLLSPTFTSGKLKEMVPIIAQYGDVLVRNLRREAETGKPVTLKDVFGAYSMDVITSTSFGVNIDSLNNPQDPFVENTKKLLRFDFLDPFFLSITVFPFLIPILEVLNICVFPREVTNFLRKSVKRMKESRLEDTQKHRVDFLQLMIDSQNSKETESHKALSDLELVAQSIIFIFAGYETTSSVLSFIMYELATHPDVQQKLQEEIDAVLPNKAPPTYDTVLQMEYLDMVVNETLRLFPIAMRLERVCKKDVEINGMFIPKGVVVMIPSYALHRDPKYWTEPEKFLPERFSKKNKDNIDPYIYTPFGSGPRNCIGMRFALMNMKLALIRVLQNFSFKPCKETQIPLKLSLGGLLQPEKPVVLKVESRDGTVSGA

Cytochrome P450 2C9 = Cytochrome P450 2C9 (Homo sapiens, UniProt P11712)
Cytochrome P450 2C9, sequence (P11712 whole entry): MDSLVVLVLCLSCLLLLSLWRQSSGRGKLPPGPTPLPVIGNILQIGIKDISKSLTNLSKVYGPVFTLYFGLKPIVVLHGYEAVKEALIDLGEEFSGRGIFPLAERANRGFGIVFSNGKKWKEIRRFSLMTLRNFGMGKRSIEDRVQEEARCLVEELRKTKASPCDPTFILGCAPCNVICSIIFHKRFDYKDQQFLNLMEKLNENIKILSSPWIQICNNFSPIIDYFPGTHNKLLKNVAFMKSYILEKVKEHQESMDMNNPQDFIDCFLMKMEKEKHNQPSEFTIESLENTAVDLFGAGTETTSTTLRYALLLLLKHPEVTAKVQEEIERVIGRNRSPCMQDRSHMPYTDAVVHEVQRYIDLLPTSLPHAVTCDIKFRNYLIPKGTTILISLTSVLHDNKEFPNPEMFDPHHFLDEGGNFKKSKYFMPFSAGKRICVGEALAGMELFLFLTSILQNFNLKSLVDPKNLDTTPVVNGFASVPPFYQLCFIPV

Cytochrome P450 2D6 = Cytochrome P450 2D6 (Homo sapiens, UniProt P10635);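 also: CYP2D6 member of a cytochrome P450 panel assay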
Cytochrome P450 2D6, sequence (P10635 whole entry): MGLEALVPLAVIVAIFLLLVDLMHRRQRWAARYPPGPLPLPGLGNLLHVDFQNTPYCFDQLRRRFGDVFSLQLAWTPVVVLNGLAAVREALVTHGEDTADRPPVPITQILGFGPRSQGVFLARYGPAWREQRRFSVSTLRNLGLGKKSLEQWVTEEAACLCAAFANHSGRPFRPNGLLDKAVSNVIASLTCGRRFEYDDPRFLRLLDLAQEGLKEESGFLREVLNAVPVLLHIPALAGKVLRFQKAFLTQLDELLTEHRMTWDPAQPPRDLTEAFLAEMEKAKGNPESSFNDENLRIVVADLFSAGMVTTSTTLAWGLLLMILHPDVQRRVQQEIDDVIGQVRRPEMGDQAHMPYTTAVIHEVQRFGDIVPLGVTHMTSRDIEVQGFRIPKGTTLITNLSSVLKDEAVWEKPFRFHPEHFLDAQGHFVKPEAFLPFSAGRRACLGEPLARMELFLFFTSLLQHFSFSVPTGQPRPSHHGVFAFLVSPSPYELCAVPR

Luciferin 4-monooxygenase, sequence (P08659 whole entry): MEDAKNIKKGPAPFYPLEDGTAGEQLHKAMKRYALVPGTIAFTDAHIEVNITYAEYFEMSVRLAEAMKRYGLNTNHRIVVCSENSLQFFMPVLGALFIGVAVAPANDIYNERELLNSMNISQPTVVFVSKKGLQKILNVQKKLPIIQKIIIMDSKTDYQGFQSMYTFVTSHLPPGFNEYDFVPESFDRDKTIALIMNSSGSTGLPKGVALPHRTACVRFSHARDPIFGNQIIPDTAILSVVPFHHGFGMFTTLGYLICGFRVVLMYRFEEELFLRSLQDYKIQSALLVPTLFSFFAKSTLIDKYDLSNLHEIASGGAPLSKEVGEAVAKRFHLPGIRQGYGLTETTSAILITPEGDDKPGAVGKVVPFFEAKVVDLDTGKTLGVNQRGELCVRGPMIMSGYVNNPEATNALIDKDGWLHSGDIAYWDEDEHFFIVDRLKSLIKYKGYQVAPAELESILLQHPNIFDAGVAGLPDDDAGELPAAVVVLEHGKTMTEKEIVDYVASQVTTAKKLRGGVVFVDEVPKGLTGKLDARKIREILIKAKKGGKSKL

NC(=O)C1(N2CCCCC2)CCN(C(=O)Nc2ccccc2C(F)(F)F)CC1
EC50 [1]: > 112 µM (not active) | EC50 [2]: > 112 µM (not active)

COc1ccc(-c2cc(C(F)(F)F)nc(SCC(=O)NCCN3CCOCC3)n2)cc1OC
EC50 [1]: > 112 µM (not active) | EC50 [2]: 47.9 µM (active)

CN1C[C@H](C(=O)N[C@@]2(C)O[C@@]3(O)[C@H]4CCCN4C(=O)[C@@H](Cc4ccccc4)N3C2=O)C=C2c3cccc4[nH]cc(c34)C[C@@H]21
AC50 (Cytochrome P450 1A2): 3.16 µM (inconclusive)

CCN(C[C@H]1N[C@@](Cc2ccccc2)(C(=O)OC)[C@H]2C(=O)N(Cc3ccccc3)C(=O)[C@@H]12)C(=O)Nc1ccc(C(F)(F)F)cc1
CC50 [3]: 39.5 µM (active)

COc1ccc(C(=O)N2CC3(CC(c4cccc([N+](=O)[O-])c4)=NO3)C[C@H]2C(=O)NCC(N)=O)cc1 (some centres undefined)
AC50 (Cytochrome P450 1A2): 28.2 µM (inconclusive)

CN(C)C=O.CNC(=O)CSc1nc2nc(C)cc(C)n2n1
EC50 [1]: > 112 µM (not active) | EC50 [2]: > 112 µM (not active)

CCCC(/C=C/c1ccc(OC(C)=O)cc1)=C1/c2ccccc2C(=O)N1c1ccccc1
CC50 [3]: 12.8 µM (active)

COc1ccccc1/C=C/CN1CCCC(CO)(Cc2cccc(Cl)c2)C1 (centres undefined)
EC50 [1]: > 112 µM (not active) | EC50 [2]: > 112 µM (not active)

Nc1ncnc2c1ncn2C1CCCC1
AC50 (Cytochrome P450 1A2): 20 µM (inconclusive) | AC50 (Cytochrome P450 3A4): 0.0398 µM (inconclusive)

CCOCCN1CCN(c2c(CC)c(C)nc3cc(-c4cc(OC)cc(OC)c4)nn23)CC1
CC50 [3]: > 40 µM (active)

CCc1ccccc1NC(=O)C1C(c2ccccc2)C1(Cl)Cl (centres undefined)
AC50 (Cytochrome P450 1A2): 17.8 µM (inconclusive) | AC50 (Cytochrome P450 2C9): 20 µM (inconclusive) | AC50 (Cytochrome P450 2D6): 11.2 µM (inconclusive)

CC1(C)CC(=O)C2=C(C1)N(c1ccccc1)C(=O)CC2c1ccsc1 (centres undefined)
EC50 [1]: > 112 µM (not active) | EC50 [2]: > 112 µM (not active)

Cc1ccc(-c2csc3ncnc(Nc4ccc(N5CCOCC5)cc4)c23)cc1
CC50 [3]: > 40 µM (active)

COCCn1c(=O)c(-c2cn(C)c3ccccc23)nc2cnc(N3CCNCC3)nc21
AC50 (Cytochrome P450 1A2): 12.6 µM (inconclusive)

Clc1cccc(-c2cc3nc4c(c(NCc5ccco5)n3n2)CCCC4)c1
CC50 [3]: 23.7 µM (active)

O=C(Nc1cccnc1)c1cc(-c2ccc(Cl)c(Cl)c2)on1
EC50 [1]: > 112 µM (not active) | EC50 [2]: > 112 µM (not active)

CCn1cc([N+](=O)[O-])c(C(=O)N2N=C(c3ccc4ccccc4c3)CC2c2ccccc2O)n1 (centres undefined)
CC50 [3]: 33.1 µM (active)

COc1ccc(C(=O)Nc2ccc(Cl)cc2C(=O)NCCN2CCOCC2)cc1
AC50 (Cytochrome P450 1A2): 22.4 µM (inconclusive)

O=C(NCc1ccccc1)C(c1cccnc1)N(C(=O)c1ccccn1)c1ccccc1F (centres undefined)
EC50 [1]: > 112 µM (not active) | EC50 [2]: > 112 µM (not active)

CS(=O)(=O)N1CCC[C@@]2(CCN(c3ccccc3)C2)C1
AC50 (Cytochrome P450 1A2): 31.6 µM (inconclusive) | AC50 (Cytochrome P450 2C9): 25.1 µM (inconclusive)

COc1cc2c(C(=O)N3CCN(c4cccc(Cl)c4)CC3)cn(CC(C)C)c(=O)c2cc1OC
CC50 [3]: > 40 µM (active)

C[N+](C)(CCCOc1ccccc1)c1ccccc1.O=C([O-])c1cc2ccccc2cc1O
AC50 (Cytochrome P450 1A2): 12.6 µM (inconclusive)

COc1ccc(Nc2cc3n(c(=O)n2)CCc2cc(OC)c(OC)cc2-3)cc1
EC50 [1]: > 112 µM (not active) | EC50 [2]: 4.68 µM (active)

C/C1=N/NC(=S)NCCCN2CCN(CCCNC(=S)N/N=C(/C)C=NNC(=S)NCCCN3CCN(CCCNC(=S)NN=C1)CC3)CC2
AC50 (Cytochrome P450 1A2): 3.16 µM (inconclusive)

O=C(O)C=Cc1ccc(Cn2ccnc2)cc1
AC50 (Cytochrome P450 1A2): 31.6 µM (inconclusive)

CC[N+](CC)(CCCNC1=CC(=O)C(NCCC[N+](CC)(CC)Cc2ccccc2)=CC1=O)Cc1ccccc1 [BENZOQUINONIUM]
AC50 (Cytochrome P450 1A2): 31.6 µM (inconclusive)

Nc1ccn([C@@H]2O[C@H](CO)[C@@H](O)C2O)c(=O)n1 (some centres undefined) [CYTARABINE]
CC50 [3]: 1.8 µM (active)
